Assay: NMR check of guest exchange in a sealed tube heated to 150° C.
Assay type: physicochemical
Details: sealed NMR tube heated to 150° C., about 1.4 atmospheres, d^6-acetone
Protocol: Nuclear magnetic resonance (NMR) spectroscopic investigations were carried out to verify the existence of the spheroidal hexamer in solution. […] FIG. […] The enlarged inset in FIG. 3 is the region of the spectrum displaying the methanol resonances. The peak assignments a, b, and c in the enlarged inset are for diaryl C—H, CH3 of the methanol guest, and CH3 of the methanol in the bulk solvent, respectively. Peak assignments d, e, and f are for the CH2 moiety adjacent to CH in the bridging group, the remaining CH2 groups, and the terminal CH3 group, respectively, on the R substituent. Peak g is the TMS internal standard.
The most significant features in the spectrum of FIG. 3 are the two methanol peaks, b and c, indicating, respectively, the methanol trapped within the hexameric spheroidal assembly and the methanol in the bulk solvent. Similar work was carried out in d^6-acetone, d^6-dimethyl sulfoxide, and d^8-toluene.

stability of guest/host assembly (methanol guest does not exchange with bulk solvent): stable
Substance: C-tridecylpyrogallol(4)arene

— patent US20030073872A1, “Hexameric complexes and their preparation” (priority 2001, published 2003)
